Measured values from US20150025131A1 (priority 2013, published 2015).
Converted amounts (≈) assume the structure as drawn. “Also recorded” adds a separate entry of the source. Like-named read-outs stand apart in the source and are kept apart here.

Experiments:
serum glutathione = experiment: Adjuvant induced arthritis model, serum glutathione; assay type: in vivo, Sprague Dawley rats; settings: AIA rats, daily intraperitoneal; Patuletin 25 mg/kg, indomethacin 5 mg/kg
Method: All studies were carried out using Female Sprague Dawley (SD) rats weighing 150-250 gms. Animals were kept at 21±2° C. and on a 12-h light/dark cycle, received standardized pelleted diet and tap water. Experiments were performed under the ethical guidelines of the International Association for the study of pain in conscious animals. Each group contains 12 animals with randomly distributed weights into each treatment group.
Arthritis was induced by injecting freshly prepared 100 μL of 1 mg suspension of lyophilized Mycobacterium tuberculosis H37Ra (MT H37Ra; DIFCO Laboratories, Detroit, Mich., USA), subcutaneously at the rat tail base using sterile hypodermic needle. Inoculation was carried out under anesthesia with a combination of 20 mg/kg ketamine and 5 mg/kg xylazine, injected intraperitoneally. Compound and the reference drug were administered daily, intraperitoneally using sterile syringes. The positive control received vehicle (5% DMSO+PBS) or saline only; treatment groups received test compounds (25 mg/kg), whereas reference group received indomethacin (5 mg/kg). […]
The concentration of reduced form of glutathione was determined in serum using the colorimetric Quantichrome ™ Glutathione assay kit (Bioassay Systems) in duplicates, using 96 well plates and according to manufacturer's instructions. The OD recorded at 412 nm which directly represents the level of glutathione in serum.

[1] = MTT cytotoxicity assay, CC1; assay type: cell-based; settings: rat, CC1 rat epithelial liver cells, 48 h incubation, read-out: Cytotoxicity (IC50 μg/mL) CC1 cells
Method: Cell cytotoxicity assay was performed using three different cell lines NIH 3T3 (mouse embryo, fibroblast cells), CC1 (rat, epithelial, liver cell) and MDBK (bovine kidney) cells using MTT (3-[4,5-dimethylthiazole-2-yl]-2,5-diphenyl-tetrazolium bromide) colorimetric assay. Briefly 3T3 were grown in DMEM, supplemented with 10% of fetal bovine serum (FBS), and 1% penicillin-streptomycin whereas CC1 (rat epithelial liver cells) were cultured in EMEM, 2 mM Glutamine, 1% Non-Essential Amino Acids (NEAA), 20 mM HEPES, 10% Foetal Bovine Serum (FBS) and 1% penicillin-streptomycin, and MDBK cells were grown in 10% of fetal bovine serum (FBS) in 75 cm^2 flask, and incubated in 5% CO2 incubator at 37° C. until they attain 70% confluency. Cells were then harvested by centrifuging at 200 g for 5 min at 25° C., counted using heamocytometer and their concentration was adjusted to 6×10^4 cells/mL. 100 μL of Cells were then plated in 96 well plate and incubated overnight. Next day the supernatant was carefully removed and 200 μL of fresh medium was added with three different concentration of compound (1, 10, 50) μg/mL. […] The extent of MTT reduction to formazan within cells was calculated by measuring the absorbance at 540 nm; using a micro plate reader (Spectra Max plus 340, Molecular Devices, Calif., USA). […] The percent inhibition was calculated by using the following formula: […]

IL-1β production = IL-1β production from PMA differentiated, LPS activated THP-1 cells (ELISA); assay type: cell-based; settings: Homo sapiens, 18 h, read-out: inhibition of IL-1β production (IC50)
Method: THP-1 (human monocytic leukemia) cells were maintained in RPMI-1640 supplemented with 10% FBS, 2 mmol/L glutamine, 5.5 mmol/L glucose, 50 μmol/L mercaptoethanol, 1 mmol/L sodium pyruvate, and 10 mmol/L HEPES and incubated at 37° C. in 5% CO2. Cells were grown in […] culture flask until they attained 70% confluency. Cells were then plated in 24-well tissue culture plates at a concentration of 2.5×10^5 cells/mL. Cells were differentiated into macrophages using PMA at a final concentration of 20 ng/mL and further incubated at 37° C. in 5% CO2 environment for 24 h. […] After addition of the compound cells were then incubated for 4 h for TNF-α production and 18 h for IL-1β production at 37° C. in 5% CO2. The supernatants were harvested and analyzed for the level of TNF-α and IL-1β, by human TNF-α and IL-1β Duo set ELISA kits, and according to the manufacturer's instructions.

[2] = tested on: ROS production from PMA activated RAW. 267 cells (murine macrophages); experiment: Lucigenin enhanced (myeloperoxidase independent) oxidative burst; assay type: cell-based; settings: Mus musculus, Macrophage
Method: Intracellular effect was determined using human peripheral whole blood phagocytes and isolated neutrophils and from mice peritoneum macrophages, where luminol-enhanced chemillumenescence assay was applied. The effect on myeloperoxidase independent ROS production was determined using lucigenin on murine macrophages RAW.267 cells. […] Table 2. […] 267 cells (murine macrophages). DPI is used as standard drug. Reading presents mean±SD of three determinations.

In the case of COc1c(O)cc2oc(-c3ccc(O)c(O)c3)c(O)c(=O)c2c1O [Patuletin, 3,5,7,3′,4′-pentahydroxy-6-methoxy flavones], the “level of glutathione in serum versus arthritic control group” value (serum glutathione) is reported as “non-significant increase; also recorded: mild increase”, the IC50 at 48 h [1] is reported as 5.2 µg/mL (≈ 15.7 µM) and the IC50 (IL-1β production) is reported as > 50 µg/mL. It also gave an IC50 ([2]; compared to DPI as standard drug, read-out: inhibition of extracellular ROS species (IC50), unit inferred) of 0.3 µg/mL and an IC50 ([2]; lucigenin enhanced, PMA activated RAW. 267 cells, read-out: Myeloperoxidase independent Oxidative Burst (IC50 μg/mL) on macrophages) of 0.3 ± 0.03 µg/mL.
